Experimental data from US20260158017A1, “KIF18A INHIBITOR” (WIGEN BIOMEDICINE TECHNOLOGY (SHANGHAI) CO., LTD., priority 2021, published 2026).

Target: T1, Recombinant human KIF18A (1-467His-tagged) protein (Homo sapiens, UniProt Q8NI77)
T1 construct: Recombinant human KIF18A (1-467His-tagged) protein; His; made in house
Assay: KIF18A enzyme assay (microtubule-stimulated ATPase activity, ADP-Glo)
Type: biochemical
Settings: 30 nM KIF18A, 75 μM ATP, 30 μg/mL pig microtubules; read-out: Inhibitory activity against KIF18A IC50
How it was run: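 Buffer 15 mM Tris pH 7.5, 10 mM MgCl2, 0.01% Pluronic F-68, 1 μM paclitaxel, 30 μg/mL pig microtubules; reactions at room temperature. IC50 from inhibition relative to DMSO.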

T1 sequence (Q8NI77 1-467): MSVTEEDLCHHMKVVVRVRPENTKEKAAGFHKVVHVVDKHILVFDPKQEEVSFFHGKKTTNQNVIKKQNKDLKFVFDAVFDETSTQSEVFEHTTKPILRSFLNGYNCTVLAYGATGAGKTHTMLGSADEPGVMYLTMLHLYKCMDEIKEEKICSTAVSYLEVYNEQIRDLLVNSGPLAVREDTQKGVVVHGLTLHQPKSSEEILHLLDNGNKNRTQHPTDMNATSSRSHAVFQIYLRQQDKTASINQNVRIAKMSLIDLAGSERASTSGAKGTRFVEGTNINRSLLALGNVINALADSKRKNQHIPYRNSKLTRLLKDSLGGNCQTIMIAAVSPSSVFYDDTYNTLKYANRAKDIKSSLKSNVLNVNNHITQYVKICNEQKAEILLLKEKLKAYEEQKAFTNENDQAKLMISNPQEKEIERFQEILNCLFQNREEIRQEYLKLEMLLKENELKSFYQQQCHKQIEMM
T1 sequence (P02550 whole entry partner): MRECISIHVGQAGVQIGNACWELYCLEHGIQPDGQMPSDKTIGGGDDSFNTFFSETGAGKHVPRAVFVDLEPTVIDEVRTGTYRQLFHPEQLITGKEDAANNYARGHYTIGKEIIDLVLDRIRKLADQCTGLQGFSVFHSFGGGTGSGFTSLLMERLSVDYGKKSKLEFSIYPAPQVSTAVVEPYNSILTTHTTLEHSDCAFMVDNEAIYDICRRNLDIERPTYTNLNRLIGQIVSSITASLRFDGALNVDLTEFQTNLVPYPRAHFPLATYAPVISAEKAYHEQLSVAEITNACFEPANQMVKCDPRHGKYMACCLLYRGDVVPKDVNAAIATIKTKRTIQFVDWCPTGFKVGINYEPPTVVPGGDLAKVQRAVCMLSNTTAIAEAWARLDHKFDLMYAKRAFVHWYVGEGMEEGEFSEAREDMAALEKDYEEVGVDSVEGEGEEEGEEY
T1 sequence (P02554 whole entry partner): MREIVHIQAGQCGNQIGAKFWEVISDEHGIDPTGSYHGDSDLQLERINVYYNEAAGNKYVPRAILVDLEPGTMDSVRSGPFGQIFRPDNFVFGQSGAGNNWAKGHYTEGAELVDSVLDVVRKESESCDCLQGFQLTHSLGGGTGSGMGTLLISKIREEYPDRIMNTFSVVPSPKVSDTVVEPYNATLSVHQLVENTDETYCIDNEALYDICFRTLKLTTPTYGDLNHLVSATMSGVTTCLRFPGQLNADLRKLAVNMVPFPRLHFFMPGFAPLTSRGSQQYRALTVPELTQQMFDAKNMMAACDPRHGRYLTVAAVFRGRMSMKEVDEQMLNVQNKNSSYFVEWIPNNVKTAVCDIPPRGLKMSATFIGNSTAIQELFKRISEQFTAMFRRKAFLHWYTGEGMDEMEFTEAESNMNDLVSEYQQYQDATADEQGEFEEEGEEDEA

IC50 [nM] | SMILES
≤ 100 | O=C(Nc1ccc(NS(=O)(=O)CCO)cc1N1CCC2(CC1)CC2)c1ccc([N+](=O)[O-])c(N2CCC(F)CC2)c1 [Compound 41]
≤ 100 | COc1ccc(NC(=O)c2ccc(NS(=O)(=O)[C@@H](C)CO)cc2N2CCC3(CC2)CC3)nc1N1CCO[C@H](C)C1 [Compound 271]
≤ 100 | O=C(Nc1ccc(NS(=O)(=O)CCO)cc1N1CCC2(CC1)CC2)c1ccc(OCF)c(N2CCOCC2)c1 [Compound 524]
≤ 100 | C[C@@H]1CN(c2cc(NC(=O)c3cnc(NS(=O)(=O)[C@@H](C)CO)cc3N3CCC4(CC3)CC4)ccc2OCF)CCO1 [Compound 463]
100 to 500 | C[C@@H]1CN(c2cc(C(=O)Nc3cnc(S(=O)(=O)N[C@@H](C)CO)cc3N3CCC4(CC3)CC4)ccc2[N+](=O)[O-])CCO1 [Compound 223]
100 to 500 | C[C@@H]1CN(c2cc(C(=O)Nc3ccc(S(=O)(=O)N[C@@H](C)CO)cc3N3CCC4(CC3)CC4)ccc2OCF)CCO1 [Compound 543]
≤ 100 | C[C@@H]1CN(c2cc(NC(=O)c3ccc(S(=O)(=O)N[C@@H](C)CO)cc3N3CCC4(CC3)CC4)ccc2[N+](=O)[O-])CCO1 [Compound 31]
≤ 100 | C[C@@H]1CN(c2nc(C(=O)Nc3cnc(NS(=O)(=O)[C@H](C)CO)cc3N3CCC4(CC3)CC4)ccc2[N+](=O)[O-])CCO1 [Compound 240]
≤ 100 | C[C@@H]1CN(c2nc(NC(=O)c3cnc(S(=O)(=O)N[C@@H](C)CO)cc3N3CCC4(CC3)CC4)ccc2OCF)CCO1 [Compound 511]
100 to 500 | C[C@@H](CO)NS(=O)(=O)c1ccc(NC(=O)c2ccc(OCF)c(N3CCC(F)(F)CC3)n2)c(N2CCC3(CC2)CC3)c1 [Compound 573]

The next lines start with the compound.

SMILES | IC50 [nM]
C[C@@H](CO)NS(=O)(=O)c1ccc(C(=O)Nc2ccc([N+](=O)[O-])c(N3CCC(F)(F)CC3)n2)c(N2CCC3(CC2)CC3)c1 [Compound 93] | ≤ 100
COc1ccc(NC(=O)c2cnc(S(=O)(=O)NCCO)cc2N2CCC3(CC2)CC3)nc1NC(C)(C)CO [Compound 315] | ≤ 100
CC(C)(CO)Nc1nc(NC(=O)c2ccc(NS(=O)(=O)CCO)cc2N2CCC3(CC2)CC3)ccc1[N+](=O)[O-] [Compound 75] | ≤ 100
CSc1ccc(NC(=O)c2cnc(NS(=O)(=O)CCO)cc2N2CCC3(CC2)CC3)nc1N1CCC(F)CC1 [Compound 633] | ≤ 100
CSc1ccc(NC(=O)c2ccc(NS(=O)(=O)CCO)cc2N2CCC3(CC2)CC3)nc1N1CC2CC2C1 (stereo not shown) [Compound 602] | ≤ 100
O=C(Nc1cnc(S(=O)(=O)NCCO)cc1N1CCC2(CC1)CC2)c1ccc([N+](=O)[O-])c(N2CCOCC2)c1 [Compound 220] | 100 to 500
CC(C)(CO)Nc1cc(NC(=O)c2ccc(NS(=O)(=O)CCO)cc2N2CCC3(CC2)CC3)ccc1[N+](=O)[O-] [Compound 11] | ≤ 100
C[C@@H](CO)S(=O)(=O)Nc1cc(N2CCC3(CC2)CC3)c(C(=O)Nc2ccc(OCF)c(N3CCC(F)(F)CC3)n2)cn1 [Compound 493] | ≤ 100
CSc1ccc(NC(=O)c2cnc(NS(=O)(=O)CCO)cc2N2CCC3(CC2)CC3)nc1N1CCOCC1 [Compound 636] | ≤ 100
COc1ccc(C(=O)Nc2cnc(S(=O)(=O)N[C@@H](C)CO)cc2N2CCC3(CC2)CC3)nc1N1CCC(F)(F)CC1 [Compound 381] | ≤ 100
O=C(Nc1ccc(OCF)c(N2CCC(F)CC2)n1)c1ccc(S(=O)(=O)NCCO)cc1N1CCC2(CC1)CC2 [Compound 441] | ≤ 100
COc1ccc(C(=O)Nc2cnc(S(=O)(=O)NCCO)cc2N2CCC3(CC2)CC3)nc1N1CCC(C)(F)C1 (stereo not shown) [Compound 376] | ≤ 100
COc1ccc(C(=O)Nc2cnc(S(=O)(=O)NCCO)cc2N2CCC3(CC2)CC3)nc1N1CC2CC2C1 (stereo not shown) [Compound 378] | ≤ 100
COc1ccc(NC(=O)c2cnc(S(=O)(=O)N[C@H](C)CO)cc2N2CCC3(CC2)CC3)nc1N1CCC(F)(F)CC1 [Compound 318] | ≤ 100
O=C(Nc1ccc([N+](=O)[O-])c(OCCC(F)(F)F)c1)c1cnc(S(=O)(=O)NCCO)cc1N1CCC2(CC1)CC2 [Compound 117] | ≤ 100
